Here are results for 4 compounds from patent US12234507B2, “Compositions and methods for targeted masking of autofluorescence” (10x Genomics, Inc., priority 2022, dated 2025).

In test [1] the test system is FFPE human tonsil tissues. Nature of the test: Autofluorescence masking over multiple cycles in FFPE human tonsil tissue. As to the method: Formalin-fixed paraffin embedded (FFPE) human tonsil and liver tissues were obtained for this example. The samples were sectioned to 5 μm thickness and transferred to Superfrost® Plus slides. The samples were treated multiple times with Histo-Clear® and citrate buffer to remove the embedded paraffin and incubated overnight with nucleic acid probes targeting epithelial genes. The next day, the samples were washed with wash buffers to remove excess or unbound probes. The probes were then ligated in the presence of ligase, RNAase inhibitor and ligation buffer for 2 hours. Subsequently, the ligation products were amplified overnight using polymerases and amplification buffers. The samples were then stained using fluorescently labelled probes. Prior to staining, the samples with treated with DTT (1 mM) for 10 minutes and quenchers with different concentrations of the compound 1A (0.1 mM, 0.5 mM, and 0.8 mM). Images of control samples without compound 1A treatment were obtained for comparison. Samples were imaged in two field of views (FOVs) to control for photo bleaching. Once imaged, the fluorescently labelled probes were stripped using a denaturing agent and contacted with additional detectable probes before the next imaging round. In this manner, multiple rounds of stripping, re-probing, and imaging of signals associated with the fluorescently labelled probes, were performed without any additional quenching steps.

Test [2] has as its system FFPE human brain tissues. Nature of the test: Targeted masking of autofluorescence, in situ imaging of FFPE human brain tissue. The procedure: (§1) Formalin-fixed paraffin embedded (FFPE) human brain tissues and fresh frozen (FrF) mouse brain tissues were obtained for this example. The samples were sectioned to 10 μm thickness and transferred to Superfrost® Plus slides. The FFPE human brain tissues were treated multiple times with Histo-Clear® and citrate buffer to remove the embedded paraffin. The FrF mouse brain samples were fixed using 3.7% formaldehyde for 5 minutes. The slides were then incubated with nucleic acid probes targeting genes of interest. The nucleic acid probes were allowed to hybridize overnight in hybridization buffer at 37° C. The next day, the samples were washed using wash buffers to remove excess or unbound probes. The probes were then ligated in the presence of ligase, RNAase inhibitor and ligation buffer for 2 hours. Subsequently, the ligation products were amplified overnight using polymerases and amplification buffers. The samples were then stained using fluorescently labelled probes. Finally, the quenching agent compound 1A was dissolved in DMF (at 18 mM), diluted with 70% ethanol to provide solutions of compound 1A at concentrations of 3.6 mM, 1.8 mM, and 0.9 mM. These solutions were applied to the samples prior to imaging. Once imaged, the fluorescently labelled probes were stripped using a denaturing agent and contacted with additional detectable probes before the next imaging round. In this manner, multiple rounds of stripping, re-probing, and imaging of signals associated with the fluorescently labelled probes, were performed without any additional quenching steps.
To improve the binding of compound 1A to tissue moieties responsible for autofluorescence, the FrF mouse brain tissues were treated with dithiothreitol (DTT, 50 mM) and 2% TEA for 10 minutes before quenching with compound 1A. DTT reduces disulfide bridges in the tissues thereby increasing the thiol content for improved binding of compound 1A. Alternatively, the tissues were treated with a combination of 2,5-dioxopyrrolidin-1-yl 3-oxo-1-(pyridin-2-yldisulfaneyl)-7,10,13,16-tetraoxa-4-azanonadecan-19-oate (PEG4-SPDP), a derivative of succinimidyl 3-(2-pyridyldithio) propionate (SPDP) comprising an internal tetraoligoethylene linker, and DTT, to convert amines to thiols and reduce any disulfide bridges to increase thiol content. For the reduction only treatment, the tissues were treated with DTT (50 mM for 10 minutes). For the conversion of amines to thiols and subsequent reduction, the tissues were treated first with PEG4-SPDP (10 mM) for 10 minutes, followed by treatment with DTT (50 mM) and compound 1A (0.9 mM). PEG4-SPDP is a multifunctional crosslinker for protein conjugation via amine-to-amine or amine-to-sulfhydryl crosslinks that contain a 4-unit polyethylene glycol (PEG) group and a reducible (cleavable) disulfide bond. The tissues were then washed prior to or after staining. […] Results were compared to the tissues incubated with a native thiol targeting group (control group). […] FIGS. 3A and 3C depict the fluorescence for the dentate gyrus and cortex portions prior to quenching, in which punctuate fluorescence signals were associated with rolling circle amplification products, and amorphous background fluorescence was detected.
Further studies were conducted on FFPE human brain tissue that were enriched for binding moieties in the tissue via treatment with DTT or with DTT and PEG4-SPDP. FIG. 5 depicts the signal-to-noise ratio increased post-quenching with DTT/Compound 1A and PEG4-SPDP-DTT/Compound 1A, and was maintained after stripping with DMSO treatment and rehybridization of fluorescent probes.

The subject of test [3] is fresh frozen (FrF) mouse brain tissues (dentate gyrus, cortex). Nature of the test: Targeted masking of autofluorescence, in situ imaging of fresh frozen mouse brain tissue sections. The procedure:
as §1
To improve the binding of compound 1A to tissue moieties responsible for autofluorescence, the FrF mouse brain tissues were treated with dithiothreitol (DTT, 50 mM) and 2% TEA for 10 minutes before quenching with compound 1A. DTT reduces disulfide bridges in the tissues thereby increasing the thiol content for improved binding of compound 1A. Alternatively, the tissues were treated with a combination of 2,5-dioxopyrrolidin-1-yl 3-oxo-1-(pyridin-2-yldisulfaneyl)-7,10,13,16-tetraoxa-4-azanonadecan-19-oate (PEG4-SPDP), a derivative of succinimidyl 3-(2-pyridyldithio) propionate (SPDP) comprising an internal tetraoligoethylene linker, and DTT, to convert amines to thiols and reduce any disulfide bridges to increase thiol content. For the reduction only treatment, the tissues were treated with DTT (50 mM for 10 minutes). […] FIGS. 3A and 3C depict the fluorescence for the dentate gyrus and cortex portions prior to quenching, in which punctuate fluorescence signals were associated with rolling circle amplification products, and amorphous background fluorescence was detected.

Test [4] has as its system FFPE human brain tissues. Nature of the test: Masking autofluorescence of FFPE human brain tissue with quencher analogues. As to conditions: for background signal compared to unquenched tissues: quencher 1 mM 30 min, 50 mM DTT, all four channels 488, 532, 590, 647 nm (FIGS. 7A-7D); for detected object local mean signal-to-noise ratio: quencher 1 mM, 590 nm and 647 nm (FIGS. 8B, 8C). The procedure: Formalin-fixed paraffin embedded (FFPE) human brain tissues were treated using the protocol described in Example 1 and further treated using 50 mM DTT for 30 minutes. Next, the tissues were incubated with the quenchers (1 mM) for 30 minutes prior to staining. Staining was performed using nucleic acid probes targeting an anchor sequence which is present within all of the RCPs and targeting epithelial genes-rp1p0, malat1, and actb. The tissues were stained with the quencher compounds 1A, 2A, 1B, 3B, a combination of quenchers 1A and 3B, or a commercial quencher (Table 1, for comparison).

[5] abbreviates: PEG4-SPDP-DTT/Compound 1A (FIG. 5).
Setting [6] is: stripping of fluorescently labeled probes and rehybridization.

Take `COc1cc(/N=N/c2ccc([N+](=O)[O-])cc2)c(OC)cc1/N=N/c1ccc(N(C)CCCN2C(=O)C=CC2=O)cc1` [Compound 1A]: the detected object density entry in test [1] (0.1, 0.5 and 0.8 mM, 488 nm (FIGS. 10A-10C)) is “increase”. The “detected object local signal-to-noise ratio” value in test [1] (0.1, 0.5 and 0.8 mM, 488 nm (FIGS. 11A-11C)) is “Increased”. Also, in test [1] (0.1, 0.5 and 0.8 mM, 488 nm, cycles 5-7 vs 1-3, multiple cycles of stripping and reprobing (FIGS. 9A-9C)), the “background signal compared to unquenched tonsil tissues” value is on record as “Significant reduction”. Besides, the “background noise across all four wavelengths measured” value in test [1] (488, 532, 590, 647 nm (data for additional wavelengths not shown)) is reported as “reduced background noise was maintained”. Moreover, the signal intensity entry in test [1] (488 nm, after quenching) was “reduced”. In addition, the “detected objected signal intensity above local background” value in test [1] (quenched tissue, 488 nm, exposure time increased from 10 ms to 30 ms (FIG. 12)) is recorded as “significantly improved”. In addition, in test [2], the “background in human brain tissues” value is recorded as “efficiently reduced”. In addition, in test [2] (488 nm, 590 nm, 532 nm and 647 nm, single quenching application (FIGS. 6A-6D)), the “signal to background ratio after 5 cycles of stripping and rehybridizing” value is “maintained”. Also, in test [2] (DTT/Compound 1A (FIG. 5)), the “signal-to-noise ratio after stripping with DMSO and rehybridization of fluorescent probes” value is “maintained”; the signal-to-noise ratio post-quenching entry is given as “increased”. For the same compound, in test [2] (setting [5]), the “signal-to-noise ratio after stripping with DMSO and rehybridization of fluorescent probes” value is recorded as “maintained”; the signal-to-noise ratio post-quenching entry is “increased”. In test [2] (covalently bound, no repeated quenching steps), the “retention of quencher on tissues through multiple detection cycles” value is reported as “retained”. For the same compound, the “autofluorescence quenching effect after stripping” value in test [2] (setting [6]) is listed as “retained”. Besides, in test [3] (FrF mouse brain, DTT or PEG4-SPDP/DTT enrichment, compared to native thiol control group), the “staining of the tissues with the targeting chemistry” value is “efficiently stain”. Also, the background signal entry in test [3] (after stripping with DMSO, treatment with compound 1A and rehybridization with additional probes) was “significantly reduced”. Also, the “background in dentate gyrus (DG) and cortex samples” value in test [3] (mouse brain, quenched vs prior to quenching (FIGS. 3A-3D)) is given as “efficiently reduced”. Also, in test [3] (setting [6]), the “autofluorescence quenching effect after stripping” value is “retained”. Moreover, in test [4], the “background signal compared to unquenched tissues” value is recorded as “significant reduction” and the “detected object local mean signal-to-noise ratio” value is recorded as “improved”.
For the compound `COc1cc(/N=N/c2ccc([N+](=O)[O-])cc2)c(OC)cc1/N=N/c1ccc(N(C)CCCC(=O)ON2C(=O)CCC2=O)cc1` [Compound 1B], in test [4], the “background signal compared to unquenched tissues” value is given as “significant reduction” and the “detected object local mean signal-to-noise ratio” value is “improved”.
On to `COc1cc(/N=N/c2c(Cl)cc([N+](=O)[O-])cc2Cl)c(OC)cc1/N=N/c1ccc(N(C)CCCN2C(=O)C=CC2=O)cc1` [Compound 2A], for which, in test [4], the “background signal compared to unquenched tissues” value was “significant reduction” and the “detected object local mean signal-to-noise ratio” value is given as “improved”.
As for `CCN(CC)c1ccc2nc3ccc(/N=N/c4ccc(N(C)CCCC(=O)ON5C(=O)CCC5=O)cc4)cc3[n+](-c3ccccc3)c2c1` [Compound 3B], the “background signal compared to unquenched tissues” value in test [4] is listed as “significant reduction”.
